Experimental data: ChEMBL document CHEMBL5257023, “Identification of leads for antiproliferative activity on MDA-MB-435 human breast cancer cells through pharmacophore and CYP1A1-mediated metabolism” (Eur J Med Chem, 2016)

How the values were obtained:
MCF7 [1] = assay: Anticancer activity against human MCF7 cells assessed as cell growth at 0.1 uM incubated for 48 hrs by SRB assay; type: functional; details: read-out: Activity
MDA-MB-468 [2] = assay: Anticancer activity against human MDA-MB-468 cells assessed as cell growth at 100 uM incubated for 48 hrs by SRB assay; type: functional; details: read-out: Activity
MDA-MB-435 [3] = assay: Anticancer activity against human MDA-MB-435 cells assessed as cell growth at 1 uM incubated for 48 hrs by SRB assay; type: functional; details: read-out: Activity
CYP1A1 [4] = target: T1, CYP1A1 (Homo sapiens, UniProt P04798); assay: Inhibition of recombinant CYP1A1 (unknown origin) assessed as residual enzyme activity using 7-ethoxyresorufin as substrate at 100 uM incubated for 15 mins by resorufin dye based spectrofluorimetry (reference value: 100%); type: ADME; details: recombinant CYP1A1, probe 7-ethoxyresorufin, read-out: Activity
T1 sequence (P04798 whole entry): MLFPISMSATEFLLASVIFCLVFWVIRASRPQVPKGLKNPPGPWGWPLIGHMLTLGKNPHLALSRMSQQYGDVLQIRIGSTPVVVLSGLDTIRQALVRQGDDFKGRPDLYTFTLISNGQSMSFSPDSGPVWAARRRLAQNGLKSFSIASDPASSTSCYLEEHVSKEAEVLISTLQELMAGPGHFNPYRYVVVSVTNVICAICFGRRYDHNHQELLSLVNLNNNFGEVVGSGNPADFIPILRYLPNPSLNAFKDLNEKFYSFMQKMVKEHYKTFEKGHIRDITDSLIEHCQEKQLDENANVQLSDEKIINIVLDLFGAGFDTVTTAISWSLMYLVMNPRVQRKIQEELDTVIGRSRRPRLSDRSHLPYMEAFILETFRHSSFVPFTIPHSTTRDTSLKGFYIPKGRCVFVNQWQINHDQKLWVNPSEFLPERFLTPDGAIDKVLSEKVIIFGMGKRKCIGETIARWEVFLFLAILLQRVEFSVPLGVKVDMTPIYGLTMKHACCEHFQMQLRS

MCF7 [5] = assay: Anticancer activity against human MCF7 cells assessed as cell growth at 1 uM incubated for 48 hrs by SRB assay; type: functional; details: read-out: Activity
MCF7 [6] = assay: Anticancer activity against human MCF7 cells assessed as cell growth at 100 uM incubated for 48 hrs by SRB assay; type: functional; details: read-out: Activity
CYP1A1 [7] = target: T1, CYP1A1; assay: Inhibition of recombinant CYP1A1 (unknown origin) assessed as residual enzyme activity using 7-ethoxyresorufin as substrate at 0.01 uM incubated for 15 mins by resorufin dye based spectrofluorimetry (reference value: 100%); type: ADME; details: recombinant CYP1A1, probe 7-ethoxyresorufin, read-out: Activity
NCI-H226 [8] = assay: Anticancer activity against human NCI-H226 cells assessed as inhibition of cell growth incubated for 48 hrs by SRB assay; type: functional
CYP1A1 [9] = target: T1, CYP1A1; assay: Inhibition of recombinant CYP1A1 (unknown origin) assessed as residual enzyme activity using 7-ethoxyresorufin as substrate at 0.1 uM incubated for 15 mins by resorufin dye based spectrofluorimetry (reference value: 100%); type: ADME; details: recombinant CYP1A1, probe 7-ethoxyresorufin, read-out: Activity
MDA-MB-435 [10] = assay: Anticancer activity against human MDA-MB-435 cells assessed as cell growth at 10 uM incubated for 48 hrs by SRB assay; type: functional; details: read-out: Activity
NCI-H226 [11] = assay: Anticancer activity against human NCI-H226 cells assessed as cell growth at 10 uM incubated for 48 hrs by SRB assay; type: functional; details: read-out: Activity
MDA-MB-468 [12] = assay: Anticancer activity against human MDA-MB-468 cells assessed as cell growth at 1 uM incubated for 48 hrs by SRB assay; type: functional; details: read-out: Activity
MDA-MB-435 [13] = assay: Anticancer activity against human MDA-MB-435 cells assessed as cell growth at 100 uM incubated for 48 hrs by SRB assay; type: functional; details: read-out: Activity
CYP1A1 [14] = target: T1, CYP1A1; assay: Inhibition of recombinant CYP1A1 (unknown origin) assessed as residual enzyme activity using 7-ethoxyresorufin as substrate at 5 uM incubated for 15 mins by resorufin dye based spectrofluorimetry (reference value: 100%); type: ADME; details: recombinant CYP1A1, probe 7-ethoxyresorufin, read-out: Activity
NCI-H226 [15] = assay: Anticancer activity against human NCI-H226 cells assessed as cell growth at 100 uM incubated for 48 hrs by SRB assay; type: functional; details: read-out: Activity
NCI-H226 [16] = assay: Anticancer activity against human NCI-H226 cells assessed as cell growth at 1 uM incubated for 48 hrs by SRB assay; type: functional; details: read-out: Activity
MDA-MB-468 [17] = assay: Anticancer activity against human MDA-MB-468 cells assessed as inhibition of cell growth incubated for 48 hrs by SRB assay; type: functional; details: for CC50: read-out: LC50 (the source's name)
CYP1A1 [18] = target: T1, CYP1A1; assay: Inhibition of recombinant CYP1A1 (unknown origin) assessed as residual enzyme activity using 7-ethoxyresorufin as substrate at 50 uM incubated for 15 mins by resorufin dye based spectrofluorimetry (reference value: 100%); type: ADME; details: recombinant CYP1A1, probe 7-ethoxyresorufin, read-out: Activity
MDA-MB-468 [19] = assay: Anticancer activity against human MDA-MB-468 cells assessed as cell growth at 10 uM incubated for 48 hrs by SRB assay; type: functional; details: read-out: Activity
MDA-MB-435 [20] = assay: Anticancer activity against human MDA-MB-435 cells assessed as inhibition of cell growth incubated for 48 hrs by SRB assay; type: functional
NCI-H226 [21] = assay: Anticancer activity against human NCI-H226 cells assessed as cell growth at 0.1 uM incubated for 48 hrs by SRB assay; type: functional; details: read-out: Activity
MDA-MB-435 [22] = assay: Anticancer activity against human MDA-MB-435 cells assessed as cell growth at 0.1 uM incubated for 48 hrs by SRB assay; type: functional; details: read-out: Activity
MDA-MB-468 [23] = assay: Anticancer activity against human MDA-MB-468 cells assessed as cell growth at 0.1 uM incubated for 48 hrs by SRB assay; type: functional; details: read-out: Activity
MCF7 [24] = assay: Anticancer activity against human MCF7 cells assessed as cell growth at 10 uM incubated for 48 hrs by SRB assay; type: functional; details: read-out: Activity
MCF7 [25] = assay: Anticancer activity against human MCF7 cells assessed as inhibition of cell growth incubated for 48 hrs by SRB assay; type: functional; details: for CC50: read-out: LC50 (the source's name)
Cytochrome P450 1A1 = target: T2, Cytochrome P450 1A1 (Homo sapiens, UniProt P04798); assay: Inhibition of recombinant CYP1A1 (unknown origin) assessed as decrease in EROD activity using 7-ethoxyresorufin as substrate incubated for 15 mins by resorufin dye based spectrofluorimetry; type: ADME
T2 sequence (P04798 whole entry): T1 sequence (P04798 whole entry)

CYP1A1 [26] = target: T1, CYP1A1; assay: Inhibition of recombinant CYP1A1 (unknown origin) assessed as residual enzyme activity using 7-ethoxyresorufin as substrate at 1 uM incubated for 15 mins by resorufin dye based spectrofluorimetry (reference value: 100%); type: ADME; details: recombinant CYP1A1, probe 7-ethoxyresorufin, read-out: Activity
CYP1A1 [27] = target: T1, CYP1A1; assay: Inhibition of recombinant CYP1A1 (unknown origin) assessed as residual enzyme activity using 7-ethoxyresorufin as substrate at 10 uM incubated for 15 mins by resorufin dye based spectrofluorimetry (reference value: 100%); type: ADME; details: recombinant CYP1A1, probe 7-ethoxyresorufin, read-out: Activity

SMILES	growth at 0.1 µM (MCF7 [1]) [%]	growth at 100 µM (MDA-MB-468 [2]) [%]	growth at 1 µM (MDA-MB-435 [3]) [%]	activity at 0.25 h, 100 µM (CYP1A1 [4]) [%]	growth at 1 µM (MCF7 [5]) [%]	growth at 100 µM (MCF7 [6]) [%]	activity at 0.25 h, 0.01 µM (CYP1A1 [7]) [%]	GI50 (NCI-H226 [8]) [µM]	LC50 (concentration killing 50% of cells) (NCI-H226 [8]) [µM]	TGI (NCI-H226 [8]) [µM]	activity at 0.25 h, 0.1 µM (CYP1A1 [9]) [%]	growth at 10 µM (MDA-MB-435 [10]) [%]	growth at 10 µM (NCI-H226 [11]) [%]	growth at 1 µM (MDA-MB-468 [12]) [%]	growth at 100 µM (MDA-MB-435 [13]) [%]	growth at 100 µM (NCI-H226 [15]) [%]	growth at 1 µM (NCI-H226 [16]) [%]	GI50 (MDA-MB-468 [17]) [µM]	TGI (MDA-MB-468 [17]) [µM]	CC50 (MDA-MB-468 [17]) [µM]	further results
Cc1cc(C)n2ncc(C(=O)NCc3ccc(Cl)cc3)c2n1	90.1	23.6	99.9	50.8	88.2	20.6	98.7	> 100	> 100	> 100	89.8	98.1	82.6	82.6	70	58.3	87.8	58.5	> 100	> 100	activity at 0.25 h, 5 µM (CYP1A1 [14]): 71.8%; activity at 0.25 h, 50 µM (CYP1A1 [18]): 64.7%; growth at 10 µM (MDA-MB-468 [19]): 77.6%; GI50 (MDA-MB-435 [20]): > 100 µM; LC50 (MDA-MB-435 [20]): > 100 µM; TGI (MDA-MB-435 [20]): > 100 µM; growth at 0.1 µM (NCI-H226 [21]): 90.9%; growth at 0.1 µM (MDA-MB-435 [22]): 100%; growth at 0.1 µM (MDA-MB-468 [23]): 90.9%; growth at 10 µM (MCF7 [24]): 80.4%; GI50 (MCF7 [25]): 57.7 µM; TGI (MCF7 [25]): > 100 µM; CC50 (MCF7 [25]): > 100 µM; IC50 (Cytochrome P450 1A1): 10 µM
Cc1sc2[nH]c(CNc3ccc(F)cc3)nc(=O)c2c1C	96.5	56.8	97.9	9.07	94	26.3	91.7	> 100	> 100	> 100	85.3	94.6	77.9	95	83.5	51.9	86.9	> 100	> 100	> 100	activity at 0.25 h, 1 µM (CYP1A1 [26]): 46%; activity at 0.25 h, 5 µM (CYP1A1 [14]): 23.9%; activity at 0.25 h, 50 µM (CYP1A1 [18]): 13.5%; growth at 10 µM (MDA-MB-468 [19]): 94.4%; GI50 (MDA-MB-435 [20]): > 100 µM; LC50 (MDA-MB-435 [20]): > 100 µM; TGI (MDA-MB-435 [20]): > 100 µM; growth at 0.1 µM (NCI-H226 [21]): 91.4%; growth at 0.1 µM (MDA-MB-435 [22]): 99.9%; growth at 0.1 µM (MDA-MB-468 [23]): 99.2%; growth at 10 µM (MCF7 [24]): 84.1%; GI50 (MCF7 [25]): 65.8 µM; TGI (MCF7 [25]): > 100 µM; CC50 (MCF7 [25]): > 100 µM; IC50 (Cytochrome P450 1A1): 0.7 µM
Nc1cc(-c2cc3cc(F)ccc3[nH]2)ccc1F	68.2	-14.4	21.5	17.5	63.9	44.5	76.5	62.3	> 100	> 100	60.9	17.7	63	96.4	14.9	30.2	83.2	36.5	84.7	> 100	activity at 0.25 h, 1 µM (CYP1A1 [26]): 39.8%; activity at 0.25 h, 5 µM (CYP1A1 [14]): 22.4%; activity at 0.25 h, 50 µM (CYP1A1 [18]): 18.3%; growth at 10 µM (MDA-MB-468 [19]): 50%; GI50 (MDA-MB-435 [20]): < 0.1 µM; LC50 (MDA-MB-435 [20]): > 100 µM; TGI (MDA-MB-435 [20]): > 100 µM; growth at 0.1 µM (NCI-H226 [21]): 97.7%; growth at 0.1 µM (MDA-MB-435 [22]): 29.5%; growth at 0.1 µM (MDA-MB-468 [23]): 100%; growth at 10 µM (MCF7 [24]): 55%; GI50 (MCF7 [25]): 69.5 µM; TGI (MCF7 [25]): > 100 µM; CC50 (MCF7 [25]): > 100 µM; IC50 (Cytochrome P450 1A1): 0.3 µM
Cc1cc(C)n(C(=O)CCn2nc(C)c(Cl)c2C)n1	85.9	68.3	100	35.1	78.7	22.9	79.9	> 100	> 100	> 100	62.2	100	71.4	100	84.9	55.6	77.6	> 100	> 100	> 100	activity at 0.25 h, 1 µM (CYP1A1 [26]): 52.9%; activity at 0.25 h, 10 µM (CYP1A1 [27]): 50.6%; activity at 0.25 h, 50 µM (CYP1A1 [18]): 36.4%; growth at 10 µM (MDA-MB-468 [19]): 97.7%; GI50 (MDA-MB-435 [20]): > 100 µM; LC50 (MDA-MB-435 [20]): > 100 µM; TGI (MDA-MB-435 [20]): > 100 µM; growth at 0.1 µM (NCI-H226 [21]): 80.4%; growth at 0.1 µM (MDA-MB-435 [22]): 100%; growth at 0.1 µM (MDA-MB-468 [23]): 100%; growth at 10 µM (MCF7 [24]): 74%; GI50 (MCF7 [25]): 54.8 µM; TGI (MCF7 [25]): > 100 µM; CC50 (MCF7 [25]): > 100 µM; IC50 (Cytochrome P450 1A1): 10 µM
